The text below walks through data of US6264916A, “N,N-dimethyldiatrizoic acid and its conjugates as hepatobiliary agents for x-ray CT imaging” (Bracco Research, USA, priority 2000, dated 2001).

This data set is described as follows: Biodistribution studies in mice (radioiodinated compounds, % ID/g-tissue). The class given is in vivo. The note with it: tracer level, but MDTA-Na 0.18M and MDTA-NMG 0.19M; for tissue uptake at 1 min / tissue uptake at 5 min / tissue uptake at 1 h: mouse, iv. As to the method:
All of the new analogs were radiolabeled in order to determine their physical and biological properties. The iodinated compounds were exchange-labeled by heating with Na^125 I in the presence of CuSO4 and Na2 S2 O5 in glacial acetic acid at 135-150° C. for 1 h, followed by HPLC purification using a nucleosil C18 column and CH3 CN--H2 O containing 0.1% TFA as an eluent. In some cases (e.g. the compound of Example 12) the radioiodination was carried out by heating with Na*I in HOAc--NaOAc (pH 4.6) at 100° C. for 15 min. In all cases radiolabeled compounds of acceptable radiochemical purity and specific activity were obtained.
The compound of formula I, N,N-dimethyl-diatrizoic acid, was similarly radiolabeled for biological studies.
a) For intravenous administration the preferred vehicle for the compounds of formula I, II and III is bovine serum albumin, however, other physiologically acceptable vehicles may also be used.
Biodistribution studies were conducted in mice and the results are given in Table I. X-Ray CT images of MDTA in mice and rats indicate that these hydrophobic diatrizoate analogs may be of promise for liver imaging.

The mark [1] stands for this setting: blood, blood, 1', read-out: Biodistribution, Blood 1'.
Setting [2] is: blood, blood, 5', read-out: Biodistribution, Blood 5'.
Setting [3] is: blood, blood, 60', read-out: Biodistribution, Blood 60'.
[4] abbreviates: kidney, kidney, 1', read-out: Biodistribution, Kidney 1'.
Where [5] appears, read: kidney, kidney, 5', read-out: Biodistribution, Kidney 5'.
Setting [6] is: kidney, kidney, 60', read-out: Biodistribution, Kidney 60'.
Where [7] appears, read: liver, liver, 1', read-out: Biodistribution, Liver 1'.
Setting [8] is: liver, liver, 5', read-out: Biodistribution, Liver 5'.
Setting [9] is: liver, liver, 60', read-out: Biodistribution, Liver 60'.
Setting [10] is: small/large intestine, small/large intestine, 1', read-out: Biodistribution, Sm/Lrg. Intestine 1'.
Setting [11] is: small/large intestine, small/large intestine, 5', read-out: Biodistribution, Sm/Lrg. Intestine 5'.
Setting [12] is: small/large intestine, small/large intestine, 60', read-out: Biodistribution, Sm/Lrg. Intestine 60'.

Read-outs that look alike come from different tables or passages of the source.

Take `CC(=O)N(C)c1c(I)c(C(=O)NCCCC(=O)O)c(I)c(N(C)C(C)=O)c1I` [Example F4-DP-MDTA, 4-[[[3,5-Bis(acetylmethylamino)-2,4,6-triiodophenyl]carbonyl]amino]-butanoic acid]: the tissue uptake at 1 min is 4.91 %ID/g under setting [1], 17.9 %ID/g under setting [4], 16.1 %ID/g under setting [7] and 1.73 %ID/g under setting [10]. Besides, the tissue uptake at 5 min under setting [2] was 0.82 %ID/g, the tissue uptake at 5 min under setting [5] came out at 7.89 %ID/g, the tissue uptake at 5 min under setting [8] is 11.9 %ID/g and the tissue uptake at 5 min under setting [11] turned out to be 11.3 %ID/g. For the same compound, the tissue uptake at 1 h is, setting by setting: under setting [3], 0.12 %ID/g; under setting [6], 0.05 %ID/g; under setting [9], 0.33 %ID/g; under setting [12], 21.2 %ID/g.

In the case of `CC(=O)N(C)c1c(I)c(C(=O)Nc2ccc(CCCCCCC(=O)O)cc2)c(I)c(N(C)C(C)=O)c1I` [Example F7-P-MDTA, 4-[[[3,5-Bis(acetylmethylamino)-2,4,6-triiodophenyl]carbonyl]amino]benzeneheptanoic acid], the tissue uptake at 1 min reads like this: under setting [1], 2.38 %ID/g; under setting [4], 4.28 %ID/g; under setting [7], 39.5 %ID/g; under setting [10], 1.38 %ID/g. The tissue uptake at 5 min runs as follows: under setting [2], 0.57 %ID/g; under setting [5], 2.94 %ID/g; under setting [8], 37.2 %ID/g; under setting [11], 6.2 %ID/g. In addition, the tissue uptake at 1 h came out at 0.15 %ID/g under setting [3], 0.3 %ID/g under setting [6], 5.02 %ID/g under setting [9] and 26.8 %ID/g under setting [12].

Turning to `CC(=O)N(C)c1c(I)c(C(=O)NCC(=O)O)c(I)c(N(C)C(C)=O)c1I` [Example F2-DP-MDTA, 4-[[[3,5-Bis(acetylmethylamino)-2,4,6-triiodophenyl]carbonyl]amino]-acetic acid], the tissue uptake at 1 min came out at 4.57 %ID/g under setting [1], 17.1 %ID/g under setting [4], 12.8 %ID/g under setting [7] and 1.28 %ID/g under setting [10]. The tissue uptake at 5 min under setting [2] came to 0.81 %ID/g, the tissue uptake at 5 min under setting [5] was 5.69 %ID/g, the tissue uptake at 5 min under setting [8] was 10.6 %ID/g and the tissue uptake at 5 min under setting [11] turned out to be 8.81 %ID/g. Further, the tissue uptake at 1 h reads like this: under setting [3], 0.03 %ID/g; under setting [6], 0.16 %ID/g; under setting [9], 1.03 %ID/g; under setting [12], 16.5 %ID/g.

Turning to `CC(=O)N(C)c1c(I)c(C(=O)NCCCCCCCCCCCC(=O)O)c(I)c(N(C)C(C)=O)c1I` [Example F12-DP-MDTA], the tissue uptake at 1 min under setting [1] is 2.38 %ID/g, the tissue uptake at 1 min under setting [4] amounted to 9.89 %ID/g, the tissue uptake at 1 min under setting [7] came out at 28.9 %ID/g and the tissue uptake at 1 min under setting [10] was determined as 2.28 %ID/g. For the same compound, the tissue uptake at 5 min runs as follows: under setting [2], 0.39 %ID/g; under setting [5], 5.72 %ID/g; under setting [8], 16.6 %ID/g; under setting [11], 11.6 %ID/g. For the same compound, the tissue uptake at 1 h is 0.04 %ID/g under setting [3], 0.07 %ID/g under setting [6], 2.17 %ID/g under setting [9] and 28 %ID/g under setting [12].

On to `CC(=O)N(C)c1c(I)c(C(=O)NCCCCCCC(=O)O)c(I)c(N(C)C(C)=O)c1I` [Example F7-DP-MDTA], for which the tissue uptake at 1 min was determined as 2.44 %ID/g under setting [1], 9.5 %ID/g under setting [4], 17.1 %ID/g under setting [7] and 4.92 %ID/g under setting [10]. Also, the tissue uptake at 5 min by setting is: under setting [2], 0.57 %ID/g; under setting [5], 8.33 %ID/g; under setting [8], 9.81 %ID/g; under setting [11], 14.5 %ID/g. Further, the tissue uptake at 1 h under setting [3] stood at 0.05 %ID/g, the tissue uptake at 1 h under setting [6] turned out to be 0.16 %ID/g, the tissue uptake at 1 h under setting [9] was found to be 0.77 %ID/g and the tissue uptake at 1 h under setting [12] stood at 22.2 %ID/g.

Regarding `CC(=O)N(C)c1c(I)c(C(=O)Nc2ccc(CCCCCCCCCCCCCCCCCCC(=O)O)cc2)c(I)c(N(C)C(C)=O)c1I` [Example F19-P-MDTA], the tissue uptake at 1 min by setting is: under setting [1], 36.7 %ID/g; under setting [4], 5.56 %ID/g; under setting [7], 17.2 %ID/g; under setting [10], 1.05 %ID/g. In addition, the tissue uptake at 5 min by setting is: under setting [2], 13.2 %ID/g; under setting [5], 5.45 %ID/g; under setting [8], 24.7 %ID/g; under setting [11], 2.4 %ID/g. Also, the tissue uptake at 1 h worked out at 0.68 %ID/g under setting [3], 2.67 %ID/g under setting [6], 10.4 %ID/g under setting [9] and 14.4 %ID/g under setting [12].

`CC(=O)N(C)c1c(I)c(C(=O)Nc2ccc(CCCCCCCCCCCCCCC(=O)O)cc2)c(I)c(N(C)C(C)=O)c1I` [Example F15-P-MDTA, 4-[[[3,5-Bis(acetylmethylamino)-2,4,6-triiodophenyl]carbonyl]amino]benzenepentadecanoic acid]: the tissue uptake at 1 min reads like this: under setting [1], 24.6 %ID/g; under setting [4], 8.28 %ID/g; under setting [7], 46.4 %ID/g; under setting [10], 2.13 %ID/g. For the same compound, the tissue uptake at 5 min reads like this: under setting [2], 4.28 %ID/g; under setting [5], 5.1 %ID/g; under setting [8], 76.3 %ID/g; under setting [11], 4.85 %ID/g. Further, the tissue uptake at 1 h is 0.12 %ID/g under setting [3], 0.34 %ID/g under setting [6], 6.18 %ID/g under setting [9] and 43.7 %ID/g under setting [12].

Regarding “9(10)-N-(4-(((3,5-Bis-(acetylmethylamino)-2,4,6-triiodophenyl)carbonyl)amino)benzoyl)amino-octadecanoic acid [9/10-F-18P-MDTA]”, the “Biodistribution, Blood 1'” value (blood, 1', 1 min) turned out to be 6.16 % ID/g-tissue. In addition, the “Biodistribution, Blood 5'” value (blood, 5', 5 min) turned out to be 0.46 % ID/g-tissue. In addition, the “Biodistribution, Blood 60'” value (blood, 60', 60 min) is on record as 0.26 % ID/g-tissue. Moreover, the “Biodistribution, Kidney 1'” value (kidney, 1', 1 min) is on record as 3.32 % ID/g-tissue. Also, the “Biodistribution, Kidney 5'” value (kidney, 5', 5 min) was 2.09 % ID/g-tissue. Where the note is “kidney, 60', 60 min”, the “Biodistribution, Kidney 60'” value was 0.39 % ID/g-tissue. For the same compound, where the note is “liver, 1', 1 min”, the “Biodistribution, Liver 1'” value worked out at 30.29 % ID/g-tissue. Also, under “liver, 5', 5 min”, the “Biodistribution, Liver 5'” value was 32.33 % ID/g-tissue. Under “liver, 60', 60 min”, the “Biodistribution, Liver 60'” value came to 3.16 % ID/g-tissue. Besides, under “small/large intestine, 1', 1 min”, the “Biodistribution, Sm/Lrg. Intestine 1'” value worked out at 0.51 % ID/g-tissue. In addition, the “Biodistribution, Sm/Lrg. Intestine 5'” value (small/large intestine, 5', 5 min) came to 2.71 % ID/g-tissue. For the same compound, the “Biodistribution, Sm/Lrg. Intestine 60'” value (small/large intestine, 60', 60 min) was 20.21 % ID/g-tissue.

Take `CC(=O)N(C)c1c(I)c(C(=O)Nc2ccc(CC(=O)O)cc2)c(I)c(N(C)C(C)=O)c1I` [Example F2-P-MDTA, 4-(((3,5-Bis(Acetylmethylamino)-2,4,6-triiodophenyl)carbonyl)amino)-benzeneacetic acid]: the tissue uptake at 1 min reads like this: under setting [1], 4.83 %ID/g; under setting [4], 11.5 %ID/g; under setting [7], 17.9 %ID/g; under setting [10], 2.47 %ID/g. Also, the tissue uptake at 5 min by setting is: under setting [2], 0.96 %ID/g; under setting [5], 5.83 %ID/g; under setting [8], 12.9 %ID/g; under setting [11], 9.54 %ID/g. In addition, the tissue uptake at 1 h is, setting by setting: under setting [3], 0.04 %ID/g; under setting [6], 0.33 %ID/g; under setting [9], 2.25 %ID/g; under setting [12], 25.4 %ID/g.
